Data on 16 compounds can be found in ChEMBL document CHEMBL6182889, “Discovery of the first-in-class DOT1L PROTAC degrader” (Eur J Med Chem, 2025).

Active and inactive are the calls of the source. No cut-off for these calls is given here. Bounds are passed on as bounds.

For assay [1], the target named is T1, von Hippel-Lindau disease tumor suppressor/Histone-lysine N-methyltransferase, H3 lysine-79 specific (Homo sapiens, UniProt Q8TEK3+P40337). Briefly: PROTAC activity at VHL/DOTIL in mixed-lineage leukemia rearranged (MLL-r) human THP-1 cells assessed as induction of DOT1L degradation by measuring fold change in DOTIL protein level at 3 uM incubated for 24 hrs by western blot analysis relative to control. It is filed as cell-based.
T1 sequence (P40337 whole entry, looked up): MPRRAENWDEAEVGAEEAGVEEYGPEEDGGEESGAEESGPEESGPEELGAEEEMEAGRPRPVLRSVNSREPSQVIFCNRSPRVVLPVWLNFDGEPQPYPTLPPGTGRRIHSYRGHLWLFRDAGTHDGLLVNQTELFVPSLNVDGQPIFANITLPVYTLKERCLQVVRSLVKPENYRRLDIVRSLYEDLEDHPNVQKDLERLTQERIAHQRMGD
T1 sequence (Q8TEK3 whole entry, looked up): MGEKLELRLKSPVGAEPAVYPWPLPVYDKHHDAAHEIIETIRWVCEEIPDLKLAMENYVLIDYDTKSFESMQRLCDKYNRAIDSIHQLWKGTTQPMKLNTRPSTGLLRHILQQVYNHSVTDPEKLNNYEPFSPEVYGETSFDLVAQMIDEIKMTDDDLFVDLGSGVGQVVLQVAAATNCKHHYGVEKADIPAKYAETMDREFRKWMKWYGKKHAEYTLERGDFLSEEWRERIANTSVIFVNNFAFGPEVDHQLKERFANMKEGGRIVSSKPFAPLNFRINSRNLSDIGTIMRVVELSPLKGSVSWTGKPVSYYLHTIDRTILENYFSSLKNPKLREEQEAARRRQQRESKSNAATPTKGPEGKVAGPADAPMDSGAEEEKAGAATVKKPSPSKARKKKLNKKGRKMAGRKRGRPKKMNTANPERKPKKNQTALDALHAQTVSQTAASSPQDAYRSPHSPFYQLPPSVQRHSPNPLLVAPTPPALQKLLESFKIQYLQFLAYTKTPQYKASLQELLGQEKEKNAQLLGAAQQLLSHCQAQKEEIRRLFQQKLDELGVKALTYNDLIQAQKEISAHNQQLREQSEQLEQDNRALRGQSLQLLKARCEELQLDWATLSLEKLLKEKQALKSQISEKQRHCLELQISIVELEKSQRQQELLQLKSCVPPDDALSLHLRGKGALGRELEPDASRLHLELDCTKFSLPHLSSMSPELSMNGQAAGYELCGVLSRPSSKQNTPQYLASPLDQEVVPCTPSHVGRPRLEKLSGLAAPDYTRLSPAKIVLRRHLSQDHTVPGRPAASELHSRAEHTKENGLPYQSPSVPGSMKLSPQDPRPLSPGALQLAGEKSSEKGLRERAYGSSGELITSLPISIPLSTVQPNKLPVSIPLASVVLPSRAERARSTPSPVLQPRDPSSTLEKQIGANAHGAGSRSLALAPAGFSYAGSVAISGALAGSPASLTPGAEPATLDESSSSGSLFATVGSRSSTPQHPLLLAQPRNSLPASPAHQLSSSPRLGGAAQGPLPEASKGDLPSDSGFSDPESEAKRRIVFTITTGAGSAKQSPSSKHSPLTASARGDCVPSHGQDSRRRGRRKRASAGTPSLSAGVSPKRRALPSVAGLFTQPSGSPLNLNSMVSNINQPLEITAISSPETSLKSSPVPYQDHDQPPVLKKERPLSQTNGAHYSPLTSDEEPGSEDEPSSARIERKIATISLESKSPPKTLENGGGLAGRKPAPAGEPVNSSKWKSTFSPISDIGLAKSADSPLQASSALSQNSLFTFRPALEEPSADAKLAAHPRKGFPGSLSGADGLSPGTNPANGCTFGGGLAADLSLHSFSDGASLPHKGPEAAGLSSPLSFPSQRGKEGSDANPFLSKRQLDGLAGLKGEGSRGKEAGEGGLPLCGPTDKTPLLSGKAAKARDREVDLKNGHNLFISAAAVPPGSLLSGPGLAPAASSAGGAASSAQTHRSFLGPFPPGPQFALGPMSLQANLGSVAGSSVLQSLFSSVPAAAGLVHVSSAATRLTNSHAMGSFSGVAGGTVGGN

Assay [2] has as its target T1, von Hippel-Lindau disease tumor suppressor/Histone-lysine N-methyltransferase, H3 lysine-79 specific. Briefly: PROTAC activity at VHL/DOTIL in mixed-lineage leukemia rearranged (MLL-r) human THP-1 cells assessed as induction of DOT1L degradation by measuring fold change in DOTIL protein level at 0.3 uM incubated for 24 hrs by western blot analysis relative to control. It is filed as cell-based.

The subject of another assay is MOLM-13. Briefly: Antiproliferative activity against mixed-lineage leukemia rearranged (MLL-r) human MOLM-13 cells assessed as inhibition of cell growth incubated for 7 days by CCK-8 assay. The class given is functional, cell-based. Conditions: time 7.0 day.
Assay [3] deals with Histone-lysine N-methyltransferase, H3 lysine-79 specific (Homo sapiens) (UniProt Q8TEK3). Briefly: Inhibition of human DOT1L using oligonucleosomes and SAM as substrate at 4.6 nM by radiometric Hotspot assay.
Histone-lysine N-methyltransferase, H3 lysine-79 specific (Homo sapiens), sequence (Q8TEK3 whole entry, looked up): as above
The test system of the next assay is MV4-11. Briefly: Antiproliferative activity against mixed-lineage leukemia rearranged (MLL-r) human MV4-11 cells assessed as inhibition of cell growth incubated for 7 days by CCK-8 assay. It is filed as functional. To be noted: time 7.0 day.
Assay [4] has as its target Histone-lysine N-methyltransferase, H3 lysine-79 specific (Homo sapiens) (UniProt Q8TEK3). Briefly: Inhibition of human DOT1L using oligonucleosomes and SAM as substrate at 1.1 to 3.3 uM by radiometric Hotspot assay. To be noted: dose 1.1-3.3 µM.

As for `Cc1ncsc1-c1ccc([C@H](CC(=O)NCCNC(=O)COc2nc(N)nc(Nc3cc(S(N)(=O)=O)ccc3N[C@@H](c3cccc4c3OC(F)(F)O4)c3ncccc3Cl)n2)NC(=O)[C@@H]2C[C@@H](O)CN2C(=O)[C@@H](NC(=O)C2(F)CC2)C(C)(C)C)cc1`, the fold change (FC) was 0.55 in assay [1] and 0.83 in assay [2].

Regarding `Cc1ncsc1-c1ccc(CNC(=O)[C@@H]2C[C@@H](O)CN2C(=O)[C@@H](NC(=O)CCCCCCNC(=O)COc2nc(N)nc(Nc3cc(S(N)(=O)=O)ccc3N[C@@H](c3cccc4c3OC(F)(F)O4)c3ncccc3Cl)n2)C(C)(C)C)cc1`, the fold change (FC) was 1.17 in assay [1] and 0.99 in assay [2].

Regarding `CC(C)N(C[C@H]1O[C@@H](n2cnc3c(N)ncnc32)[C@H](O)[C@@H]1O)[C@H]1C[C@@H](CCc2nc3cc(C(C)(C)C)ccc3[nH]2)C1`, in the assay with MOLM-13, the Activity entry is on record as “Active; Reduced Potency In Molm-13 Cells Relative To Mv4-11 Cells Observed”. Further, the fold change (FC) in assay [1] turned out to be 1.03; in assay [2], 1.07.

As to `Cc1ncsc1-c1ccc([C@H](CC(=O)NCCCCCCNC(=O)COc2nc(N)nc(Nc3cc(S(N)(=O)=O)ccc3N[C@@H](c3cccc4c3OC(F)(F)O4)c3ncccc3Cl)n2)NC(=O)[C@@H]2C[C@H](O)CN2C(=O)[C@@H](NC(=O)C2(F)CC2)C(C)(C)C)cc1`, in the assay on MOLM-13, the outcome was inactive. Further, the inhibition in assay [3] was greater than 95%. For the same compound, the fold change (FC) worked out at 1.05 in assay [1] and 0.99 in assay [2]. The result in the assay on MV4-11 was Active.

`Cc1ncsc1-c1ccc(CNC(=O)[C@@H]2C[C@@H](O)CN2C(=O)[C@@H](NC(=O)CCCNC(=O)COc2nc(N)nc(Nc3cc(S(N)(=O)=O)ccc3N[C@@H](c3cccc4c3OC(F)(F)O4)c3ncccc3Cl)n2)C(C)(C)C)cc1`: the fold change (FC) in assay [1] came out at 1.2; in assay [2] it was 0.99.

On to `Cc1ncsc1-c1ccc(CNC(=O)[C@@H]2C[C@@H](O)CN2C(=O)[C@@H](NC(=O)CCCCNC(=O)COc2nc(N)nc(Nc3cc(S(N)(=O)=O)ccc3N[C@@H](c3cccc4c3OC(F)(F)O4)c3ncccc3Cl)n2)C(C)(C)C)cc1`, for which the values for the fold change (FC) in assay [1] and in assay [2] were 1.17 and 0.99, respectively.

`Cc1ncsc1-c1ccc([C@H](CC(=O)NCCCNC(=O)COc2nc(N)nc(Nc3cc(S(N)(=O)=O)ccc3N[C@@H](c3cccc4c3OC(F)(F)O4)c3ncccc3Cl)n2)NC(=O)[C@@H]2C[C@@H](O)CN2C(=O)[C@@H](NC(=O)C2(F)CC2)C(C)(C)C)cc1`: the fold change (FC) in assay [1] amounted to 0.28; in assay [2], 0.72.

In the case of `Cc1ncsc1-c1ccc(CNC(=O)[C@@H]2C[C@@H](O)CN2C(=O)[C@@H](NC(=O)CCCCCCCNC(=O)COc2nc(N)nc(Nc3cc(S(N)(=O)=O)ccc3N[C@@H](c3cccc4c3OC(F)(F)O4)c3ncccc3Cl)n2)C(C)(C)C)cc1`, the fold change (FC) in assay [1] worked out at 0.83; in assay [2], 1.01.

In the case of `CC(=O)Nc1nc(Nc2cc(S(=O)(=O)NC(C)=O)ccc2N(C(C)=O)[C@@H](c2cccc3c2OC(F)(F)O3)c2ncccc2Cl)nc(OCC(=O)NCCCCCCNC(=O)C[C@H](NC(=O)C2CC(O)CN2C(=O)[C@@H](NC(=O)C2(F)CC2)C(C)(C)C)c2ccc(-c3scnc3C)cc2)n1` (single isomer, unassigned), the result in the assay on MOLM-13 and with MV4-11 was inactive. The fold change (FC) was determined as 1.11 in assay [1] and 1.1 in assay [2]. Also, the inhibition in assay [4] was greater than 50%.

As for `COc1nc(N)nc(Nc2cc(S(N)(=O)=O)ccc2N[C@@H](c2cccc3c2OC(F)(F)O3)c2ncccc2Cl)n1`, in the assay on MOLM-13, the Activity result was “Active; Reduced Potency In Molm-13 Cells Relative To Mv4-11 Cells Observed”. Also, the fold change (FC) in assay [1] turned out to be 1.57; in assay [2] it was 1.29.

In the case of `Cc1ncsc1-c1ccc([C@H](CC(=O)NCCCCNC(=O)COc2nc(N)nc(Nc3cc(S(N)(=O)=O)ccc3N[C@@H](c3cccc4c3OC(F)(F)O4)c3ncccc3Cl)n2)NC(=O)[C@@H]2C[C@@H](O)CN2C(=O)[C@@H](NC(=O)C2(F)CC2)C(C)(C)C)cc1`, the fold change (FC) came out at 0.6 in assay [1] and 0.58 in assay [2].

With `Cc1ncsc1-c1ccc(CNC(=O)[C@@H]2C[C@@H](O)CN2C(=O)[C@@H](NC(=O)CCNC(=O)COc2nc(N)nc(Nc3cc(S(N)(=O)=O)ccc3N[C@@H](c3cccc4c3OC(F)(F)O4)c3ncccc3Cl)n2)C(C)(C)C)cc1`, the values for the fold change (FC) in assay [1] and in assay [2] were 0.95 and 0.82, respectively.

On to `Cc1ncsc1-c1ccc([C@H](CC(=O)NCCCCCCCCNC(=O)COc2nc(N)nc(Nc3cc(S(N)(=O)=O)ccc3N[C@@H](c3cccc4c3OC(F)(F)O4)c3ncccc3Cl)n2)NC(=O)[C@@H]2C[C@@H](O)CN2C(=O)[C@@H](NC(=O)C2(F)CC2)C(C)(C)C)cc1`, for which the fold change (FC) is 0.56 in assay [1] and 0.52 in assay [2].

For the compound `Cc1ncsc1-c1ccc(CNC(=O)[C@@H]2C[C@@H](O)CN2C(=O)[C@@H](NC(=O)CCCCCNC(=O)COc2nc(N)nc(Nc3cc(S(N)(=O)=O)ccc3N[C@@H](c3cccc4c3OC(F)(F)O4)c3ncccc3Cl)n2)C(C)(C)C)cc1`, the fold change (FC) in assay [1] was determined as 1.11; in assay [2], 1.52.

On to `Cc1ncsc1-c1ccc([C@H](CC(=O)NCCCCCCCNC(=O)COc2nc(N)nc(Nc3cc(S(N)(=O)=O)ccc3N[C@@H](c3cccc4c3OC(F)(F)O4)c3ncccc3Cl)n2)NC(=O)[C@@H]2C[C@@H](O)CN2C(=O)[C@@H](NC(=O)C2(F)CC2)C(C)(C)C)cc1`, for which the fold change (FC) turned out to be 0.33 in assay [1] and 0.36 in assay [2].

`Cc1ncsc1-c1ccc([C@H](CC(=O)NCCCCCNC(=O)COc2nc(N)nc(Nc3cc(S(N)(=O)=O)ccc3N[C@@H](c3cccc4c3OC(F)(F)O4)c3ncccc3Cl)n2)NC(=O)[C@@H]2C[C@@H](O)CN2C(=O)[C@@H](NC(=O)C2(F)CC2)C(C)(C)C)cc1`: the fold change (FC) in assay [1] was 0.36; in assay [2], 0.9.
